For one assay, the target named is T1, human M1 receptors (Homo sapiens, UniProt P11229).
T1 construct: expressed in transfected cells; host or cells: Chinese hamster ovary cells (membranes)
T1 sequence (P11229 1-460): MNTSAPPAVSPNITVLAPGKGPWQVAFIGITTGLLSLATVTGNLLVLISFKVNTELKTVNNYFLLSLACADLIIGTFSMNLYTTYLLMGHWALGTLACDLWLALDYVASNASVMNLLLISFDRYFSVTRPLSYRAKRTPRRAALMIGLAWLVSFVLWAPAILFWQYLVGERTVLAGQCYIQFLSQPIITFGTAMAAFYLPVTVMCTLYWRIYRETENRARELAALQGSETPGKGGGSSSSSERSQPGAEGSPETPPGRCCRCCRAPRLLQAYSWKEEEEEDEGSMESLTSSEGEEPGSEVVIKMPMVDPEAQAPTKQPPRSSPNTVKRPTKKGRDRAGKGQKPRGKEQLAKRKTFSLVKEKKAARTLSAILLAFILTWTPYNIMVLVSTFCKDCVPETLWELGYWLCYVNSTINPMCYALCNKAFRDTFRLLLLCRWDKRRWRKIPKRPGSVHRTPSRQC
Nature of the assay: hM1 receptor radioligand binding ([3H]NMS). The note with it: pKi reported on a scale of 1 through 5. An outline of the steps: (§1)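 Competition binding: membranes or tissue bearing the receptor incubated to equilibrium with a single radioligand concentration plus a range of unlabelled test compound concentrations; bound and free separated by filtration. Nonspecific binding defined with a known blocker; displacement curves corrected for it gave binding values.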

A further assay addresses T2, human 5HT1A receptors (Homo sapiens, UniProt P08908).
T2 construct: expressed in transfected cells; host or cells: Chinese hamster ovary cells (membranes)
T2 sequence (P08908 1-422): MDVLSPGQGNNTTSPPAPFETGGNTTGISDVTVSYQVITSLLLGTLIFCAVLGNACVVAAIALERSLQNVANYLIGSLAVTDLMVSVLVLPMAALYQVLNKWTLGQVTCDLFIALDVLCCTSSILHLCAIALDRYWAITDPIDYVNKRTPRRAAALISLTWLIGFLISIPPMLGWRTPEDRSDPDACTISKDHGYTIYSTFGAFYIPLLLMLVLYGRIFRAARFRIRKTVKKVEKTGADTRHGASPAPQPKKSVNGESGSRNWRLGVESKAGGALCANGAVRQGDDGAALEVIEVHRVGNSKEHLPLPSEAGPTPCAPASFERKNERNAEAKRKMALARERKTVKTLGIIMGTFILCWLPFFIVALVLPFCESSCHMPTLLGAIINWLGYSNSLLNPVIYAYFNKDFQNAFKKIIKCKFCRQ
The assay can be described thus: h5-HT1A receptor radioligand binding ([3H]8OH-DPAT). The settings on record: pKi reported on a scale of 1 through 5. An outline of the steps: as §1

Another assay addresses T3, 5-HT2A receptor (Rattus norvegicus, UniProt P14842).
T3 construct: Eight strips of tissue (0.5 cm long) were cut. and were mounted in 10 ml organ baths; tissue Charles River Laboratories; host or cells: rat aorta strips, endothelium removed
The assay can be described thus: cell-based. The note with it: read-out: 5HT2A (pKb) (converted). An outline of the steps:
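Endothelium-denuded aortic strips from male Sprague Dawley rats held at 37° C in carbogen-aerated Krebs, pH 7.4, under 2 g resting tension. Contraction recorded as tension change, expressed as % of maximal 5-HT response; agonist EC50 from Parker–Waud fit, antagonist pKB/pA2 from concentration-ratios.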

Assay [1] deals with T4, human D2s dopamine receptors (Homo sapiens, UniProt P14416).
T4 construct: expressed in transfected cells; host or cells: Chinese hamster ovary cells (membranes)
T4 sequence (P14416 1-414 isoform P14416-2): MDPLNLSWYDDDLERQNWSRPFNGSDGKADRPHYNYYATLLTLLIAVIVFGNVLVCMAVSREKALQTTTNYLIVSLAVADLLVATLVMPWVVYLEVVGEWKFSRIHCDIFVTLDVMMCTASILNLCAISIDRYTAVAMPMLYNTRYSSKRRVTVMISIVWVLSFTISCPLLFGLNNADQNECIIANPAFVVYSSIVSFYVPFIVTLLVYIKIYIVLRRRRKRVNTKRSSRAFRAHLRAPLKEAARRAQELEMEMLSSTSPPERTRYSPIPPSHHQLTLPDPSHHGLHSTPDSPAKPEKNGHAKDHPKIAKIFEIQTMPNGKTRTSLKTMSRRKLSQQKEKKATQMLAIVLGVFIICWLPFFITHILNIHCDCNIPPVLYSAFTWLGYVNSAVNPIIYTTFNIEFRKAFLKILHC
The assay can be described thus: hD2S receptor radioligand binding ([3H]spiperone). The note with it: pKi reported on a scale of 1 through 5. An outline of the steps: as §1

Another assay deals with T5, human H1 receptors (Homo sapiens, UniProt P35367).
T5 construct: expressed in transfected cells; host or cells: Chinese hamster ovary cells (membranes)
T5 sequence (P35367 whole entry): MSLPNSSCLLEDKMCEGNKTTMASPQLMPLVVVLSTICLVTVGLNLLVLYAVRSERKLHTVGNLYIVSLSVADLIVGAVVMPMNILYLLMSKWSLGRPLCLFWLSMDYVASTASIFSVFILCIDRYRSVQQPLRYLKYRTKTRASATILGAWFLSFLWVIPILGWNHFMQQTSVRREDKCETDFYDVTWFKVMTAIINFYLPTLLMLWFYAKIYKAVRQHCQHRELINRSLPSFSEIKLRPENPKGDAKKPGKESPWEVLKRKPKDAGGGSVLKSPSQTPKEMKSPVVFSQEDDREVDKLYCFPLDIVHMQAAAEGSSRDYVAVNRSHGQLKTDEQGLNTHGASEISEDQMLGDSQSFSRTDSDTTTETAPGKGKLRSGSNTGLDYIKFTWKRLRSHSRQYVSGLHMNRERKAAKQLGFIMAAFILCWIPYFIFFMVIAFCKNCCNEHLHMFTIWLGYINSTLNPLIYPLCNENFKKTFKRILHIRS
The assay can be described thus: hH1 receptor radioligand binding ([3H]Pyrilamine). The note with it: pKi reported on a scale of 1 through 5. The method in brief: as §1

For another assay, the target named is T6, human 5HT2C receptors (Homo sapiens, UniProt P28335).
T6 construct: expressed in transfected cells; host or cells: human embryo kidney cells (membranes)
T6 sequence (P28335 33-458): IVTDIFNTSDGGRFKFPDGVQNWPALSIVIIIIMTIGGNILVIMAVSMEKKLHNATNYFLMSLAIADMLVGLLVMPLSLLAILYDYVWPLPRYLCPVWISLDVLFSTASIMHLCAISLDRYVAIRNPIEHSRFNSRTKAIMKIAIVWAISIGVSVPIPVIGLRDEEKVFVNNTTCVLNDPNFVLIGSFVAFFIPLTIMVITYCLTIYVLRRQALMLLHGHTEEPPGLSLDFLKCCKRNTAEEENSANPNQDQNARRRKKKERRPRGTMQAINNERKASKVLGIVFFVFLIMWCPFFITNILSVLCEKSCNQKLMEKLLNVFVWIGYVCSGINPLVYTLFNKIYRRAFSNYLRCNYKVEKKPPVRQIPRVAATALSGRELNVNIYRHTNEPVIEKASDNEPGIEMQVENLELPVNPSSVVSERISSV
The assay can be described thus: h5-HT2C receptor radioligand binding ([3H]Mesulergine). The settings on record: pKi reported on a scale of 1 through 5. An outline of the steps: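 Competition binding: membranes incubated to equilibrium with a single concentration of [3H]mesulergine and a range of unlabeled test compound concentrations, then filtered. Nonspecific binding defined with a known receptor blocker; displacement concentration-response, corrected for nonspecific binding, gave the affinity measure.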

In assay [2] the target is T7, human D2L dopamine receptors (Homo sapiens, UniProt P14416).
T7 construct: expressed in transfected cells; host or cells: insect Sf9 cells (membranes)
T7 sequence (P14416 whole entry): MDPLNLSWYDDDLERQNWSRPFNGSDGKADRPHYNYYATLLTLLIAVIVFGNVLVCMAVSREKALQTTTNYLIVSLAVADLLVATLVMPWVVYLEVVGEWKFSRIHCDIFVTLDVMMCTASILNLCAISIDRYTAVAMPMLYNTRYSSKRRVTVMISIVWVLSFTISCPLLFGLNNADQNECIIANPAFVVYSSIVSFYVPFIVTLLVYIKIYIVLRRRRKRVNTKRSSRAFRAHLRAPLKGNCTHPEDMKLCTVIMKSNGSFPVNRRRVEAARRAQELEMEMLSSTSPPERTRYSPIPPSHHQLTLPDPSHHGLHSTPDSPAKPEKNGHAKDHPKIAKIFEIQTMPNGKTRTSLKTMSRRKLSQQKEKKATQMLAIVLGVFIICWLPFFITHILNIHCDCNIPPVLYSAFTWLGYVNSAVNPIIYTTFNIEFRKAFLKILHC
Nature of the assay: hD2L receptor radioligand binding ([3H]spiperone). The settings on record: pKi reported on a scale of 1 through 5; read-out: D2L (pKi) (converted). An outline of the steps:
as §1

Like-named read-outs stand apart in the source and are kept apart here.

T3 sequence (P14842 whole entry): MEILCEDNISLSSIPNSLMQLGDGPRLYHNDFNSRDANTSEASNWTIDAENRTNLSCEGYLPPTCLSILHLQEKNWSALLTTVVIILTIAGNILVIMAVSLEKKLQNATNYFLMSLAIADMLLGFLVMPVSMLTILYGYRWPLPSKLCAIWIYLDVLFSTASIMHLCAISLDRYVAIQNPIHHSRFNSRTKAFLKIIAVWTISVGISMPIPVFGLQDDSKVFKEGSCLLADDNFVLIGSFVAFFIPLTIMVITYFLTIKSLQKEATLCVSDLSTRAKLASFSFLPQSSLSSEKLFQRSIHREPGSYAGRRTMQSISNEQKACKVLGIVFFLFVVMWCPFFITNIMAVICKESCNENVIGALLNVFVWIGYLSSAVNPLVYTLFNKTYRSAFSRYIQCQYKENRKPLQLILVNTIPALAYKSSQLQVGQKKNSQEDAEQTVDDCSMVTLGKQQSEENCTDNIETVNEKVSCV

Take `O=C(C[C@H]1CN(C2=Nc3cc(Cl)ccc3Oc3ccccc32)CCN1)O[C@H]1CCOC1` [EQ, (S)-tetrahydrofuran-3-yl 2-((S)-4-((E)-8-chlorodibenzo[b,f][1,4]oxazepin-11-yl)piperazin-2-yl)acetate]: the Ki at human M1 receptors was 5010 to 9770 nM; at human 5HT1A receptors it was 10 to 97.7 nM; in assay [1], 631 to 2450 nM; at human H1 receptors, 10 to 97.7 nM. At 5-HT2A receptor, the Kb is 3.16 to 9.77 nM.

For `CCOC(=O)C[C@H]1CN(C2=Nc3cc(Cl)ccc3Oc3ccccc32)CCN1CCC(C)C` [ER, (S,E)-ethyl 2-(4-(8-chlorodibenzo[b,f][1,4]oxazepin-11-yl)-1-isopentylpiperazin-2-yl)acetate], the Ki on human M1 receptors was over 10000 nM; at human 5HT1A receptors, 1000 to 9770 nM; in assay [1] it was 2510 to 9770 nM; on human H1 receptors, 100 to 977 nM. Moreover, the Kb at 5-HT2A receptor was 31.6 to 97.7 nM.

Turning to `CN1CCN(C2=Nc3cc(Cl)ccc3Oc3ccccc32)C[C@@H]1CC(=O)NCC(F)(F)C(F)(F)F` [EU, (S,E)-2-(4-(8-chlorodibenzo[b,f][1,4]oxazepin-11-yl)-1-methylpiperazin-2-yl)-N-(2,2,3,3,3-pentafluoropropyl)acetamide], the Ki at human M1 receptors is over 10000 nM; at human 5HT1A receptors, 1000 to 9770 nM; in assay [1] it was 2510 to 9770 nM; on human H1 receptors, 100 to 977 nM. Besides, the Kb at 5-HT2A receptor (pKb reported on a scale of 1 through 5) is over 100 nM.

In the case of `CCOC(=O)CC1CN(C2=Nc3ccc(F)cc3Oc3ccccc32)CCN1` (stereo not drawn) [J, (E)-ethyl 2-(4-(7-fluorodibenzo[b,f][1,4]oxazepin-11-yl)piperazin-2-yl)acetate], the Ki on human 5HT2C receptors is 100 to 977 nM; on human M1 receptors, over 10000 nM; on human 5HT1A receptors, 100 to 977 nM; in assay [2], 2510 to 9770 nM; in assay [1] it was 2510 to 9770 nM; at human H1 receptors it was 100 to 977 nM. Moreover, the Kb at 5-HT2A receptor was 31.6 to 97.7 nM.

For the compound `CC(C)OC(=O)CC1CN(C2=Nc3cc(Cl)ccc3Oc3ccccc32)CCN1` (stereo not drawn) [L, (E)-isopropyl 2-(4-(8-chlorodibenzo[b,f][1,4]oxazepin-11-yl)piperazin-2-yl)acetate], the Ki at human 5HT2C receptors was 10 to 97.7 nM; at human M1 receptors it was over 10000 nM; at human 5HT1A receptors it was 100 to 977 nM; in assay [2], 631 to 2450 nM; in assay [1], 2510 to 9770 nM; on human H1 receptors it was 100 to 977 nM. Moreover, the Kb at 5-HT2A receptor is 10 to 30.9 nM.

As for `CC(C)OC(=O)CC1CN(C2=Nc3ccc(F)cc3Oc3ccccc32)CCN1` (stereo not drawn) [M, (E)-isopropyl 2-(4-(7-fluorodibenzo[b,f][1,4]oxazepin-11-yl)piperazin-2-yl)acetate], the Ki at human 5HT2C receptors is 100 to 977 nM; on human M1 receptors, over 10000 nM; at human 5HT1A receptors, 100 to 977 nM; in assay [2], 2510 to 9770 nM; in assay [1], over 10000 nM; at human H1 receptors it was 1000 to 9770 nM. For the same compound, the Kb on 5-HT2A receptor is 10 to 30.9 nM.

The values are drawn from patent publication US20120178738A1, “DIBENZO [B,F] [1,4]OXAZAPINE COMPOUNDS” (ARYX THERAPEUTICS, INC., priority 2007, published 2012).
